Experimental data published in PMC11497264 (Chembiochem, 2024).
Where two headings read alike, the source gives them in different places. Bridge positions count the residues as written; N and C are the ends. Peptide text beside a SMILES is read from it.

Biological target: T1, human GRP78 (Homo sapiens, UniProt P11021)
T1 construct: The full length human GRP78 protein recombinantly produced in Escherichia coli; 6xHis (inferred from capture on nickel-NTA chip); purchased Abcam (Cambridge, UK); host or cells: Escherichia coli
Experiment: biochemical
Assay type: binding

T1 sequence (P11021 19-654): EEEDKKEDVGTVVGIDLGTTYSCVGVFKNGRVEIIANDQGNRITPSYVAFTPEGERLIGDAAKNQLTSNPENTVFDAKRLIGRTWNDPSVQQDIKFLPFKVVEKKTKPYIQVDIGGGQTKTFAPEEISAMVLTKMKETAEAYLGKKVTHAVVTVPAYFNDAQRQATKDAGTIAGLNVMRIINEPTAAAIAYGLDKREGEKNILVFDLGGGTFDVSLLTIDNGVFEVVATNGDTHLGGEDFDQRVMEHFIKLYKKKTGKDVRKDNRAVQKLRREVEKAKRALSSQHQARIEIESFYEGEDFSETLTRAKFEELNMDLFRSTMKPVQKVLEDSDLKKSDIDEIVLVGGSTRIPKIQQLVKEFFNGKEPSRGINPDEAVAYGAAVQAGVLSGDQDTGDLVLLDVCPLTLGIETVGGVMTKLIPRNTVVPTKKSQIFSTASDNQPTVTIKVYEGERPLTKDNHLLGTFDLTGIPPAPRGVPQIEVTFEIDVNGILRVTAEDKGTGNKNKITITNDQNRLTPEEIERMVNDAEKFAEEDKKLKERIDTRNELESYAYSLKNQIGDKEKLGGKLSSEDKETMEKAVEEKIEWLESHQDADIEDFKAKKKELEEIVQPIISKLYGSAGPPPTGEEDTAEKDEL

Structure (SMILES): CC(C)C[C@@H]1NC(=O)[C@H](C)NC(=O)[C@H](C(C)C)NC(=O)[C@H]([C@@H](C)O)NC(=O)[C@@H](N)CSSC[C@@H](C(N)=O)NC(=O)[C@H](C(C)C)NC(=O)[C@H](CCCNC(=N)N)NC(=O)[C@H](C(C)C)NC(=O)[C@H](Cc2ccc(O)cc2)NC(=O)CNC(=O)CNC(=O)[C@@H]2CCCN2C1=O [Pep42, reference compound] (H-CTVALPGGYVRVC-NH2; disulfide 1-13)
- Kd (affinity of binding to GRP78): 3.4 mM
- kon (read-out: Ka1 (association rate constant 1)): 160 M⁻¹ s⁻¹
- koff (read-out: Kd1 (dissociation rate constant 1)): 0.678 s⁻¹
- koff (read-out: Kd2 (dissociation rate constant 2)): 0.0116 s⁻¹
